In PubChem BioAssay AID1963432 (Molecular Pharmacology Branch, DTP, NCI, 2024):
Several values for one entry are separate records, joined by “and”; a condition that tells them apart may be missing. Equal values may be shown once.

Tested on: SYO-1 complex spheroid growth, percent test/control
Assay: Anticancer human tumor SYO-1 cell line growth inhibition [Asc];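 further: compound exposure lasted 7 days after spheroids grew 3 days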;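 on viability, T/C: 100% = DMSO vehicle control viability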
Details: for viability, T/C: stronger effect = lower value
Outline: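 Stromal components (HUVEC and hMSC) are co-assembled with the cancer cells into multicellular spheroids. Drugs are then added singly or paired, at concentrations falling by half-log increments from a clinically achievable maximum, capped at 10 microM without known Cmax.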

[1] = curve of first compound, second compound 0.00949 µM
[2] = curve of first compound, second compound 0.03 µM
[3] = curve of first compound, second compound 0.0949 µM
[4] = curve of first compound, second compound 0.3 µM
[5] = curve of first compound, second compound 0.949 µM
[6] = curve of first compound, second compound 3 µM
[7] = second compound 0.00949 µM, first compound 0.0316 µM
[8] = second compound 0.00949 µM, first compound 0.1 µM
[9] = second compound 0.00949 µM, first compound 0.316 µM
[10] = second compound 0.00949 µM, first compound 1 µM
[11] = second compound 0.00949 µM, first compound 3.16 µM
[12] = second compound 0.00949 µM, first compound 10 µM
[13] = second compound 0.03 µM, first compound 0.0316 µM
[14] = second compound 0.03 µM, first compound 0.1 µM
[15] = second compound 0.03 µM, first compound 0.316 µM
[16] = second compound 0.03 µM, first compound 1 µM
[17] = second compound 0.03 µM, first compound 3.16 µM
[18] = second compound 0.03 µM, first compound 10 µM
[19] = second compound 0.0949 µM, first compound 0.0316 µM
[20] = second compound 0.0949 µM, first compound 0.1 µM
[21] = second compound 0.0949 µM, first compound 0.316 µM
[22] = second compound 0.0949 µM, first compound 1 µM
[23] = second compound 0.0949 µM, first compound 3.16 µM
[24] = second compound 0.0949 µM, first compound 10 µM
[25] = second compound 0.3 µM, first compound 0.0316 µM
[26] = second compound 0.3 µM, first compound 0.1 µM
[27] = second compound 0.3 µM, first compound 0.316 µM
[28] = second compound 0.3 µM, first compound 1 µM
[29] = second compound 0.3 µM, first compound 3.16 µM
[30] = second compound 0.3 µM, first compound 10 µM
[31] = second compound 0.949 µM, first compound 0.0316 µM
[32] = second compound 0.949 µM, first compound 0.1 µM
[33] = second compound 0.949 µM, first compound 0.316 µM
[34] = second compound 0.949 µM, first compound 1 µM
[35] = second compound 0.949 µM, first compound 3.16 µM
[36] = second compound 0.949 µM, first compound 10 µM
[37] = second compound 3 µM, first compound 0.0316 µM
[38] = second compound 3 µM, first compound 0.1 µM
[39] = second compound 3 µM, first compound 0.316 µM
[40] = second compound 3 µM, first compound 1 µM
[41] = second compound 3 µM, first compound 3.16 µM
[42] = second compound 3 µM, first compound 10 µM

O=C(c1cc(Cc2n[nH]c(=O)c3ccccc23)ccc1F)N1CCN(C(=O)C2CC2)CC1 + CCN1C(C(=O)NC23CCC(C(=O)O)(CC2)CC3)C(c2cccc(Cl)c2F)C2(C(=O)Nc3cc(Cl)ccc32)C12CCCCC2
IC50 [1]: 1840 nM
IC50 [2]: 1130 nM
IC50 [3]: 155 nM
IC50 [4]: < 31.6 nM
IC50 [5]: < 31.6 nM
IC50 [6]: < 31.6 nM
viability, T/C [7]: 104%
viability, T/C [8]: 93.4%
viability, T/C [9]: 99.4%
viability, T/C [10]: 92%
viability, T/C [11]: 12.9%
viability, T/C [12]: 4.28%
viability, T/C [13]: 102%
viability, T/C [14]: 89.3%
viability, T/C [15]: 92.4%
viability, T/C [16]: 55.2%
viability, T/C [17]: 6.53%
viability, T/C [18]: 4.33%
viability, T/C [19]: 71.7%
viability, T/C [20]: 54.1%
viability, T/C [21]: 40.9%
viability, T/C [22]: 12.4%
viability, T/C [23]: 4.71%
viability, T/C [24]: 3.12%
viability, T/C [25]: 9.88%
viability, T/C [26]: 9.34%
viability, T/C [27]: 8.44%
viability, T/C [28]: 4.25%
viability, T/C [29]: 4.23%
viability, T/C [30]: 2.9%
viability, T/C [31]: 1.89%
viability, T/C [32]: 1.57%
viability, T/C [33]: 3.08%
viability, T/C [34]: 2.92%
viability, T/C [35]: 2.34%
viability, T/C [36]: 1.51%
viability, T/C [37]: 1.11%
viability, T/C [38]: 1.24%
viability, T/C [39]: 2.68%
viability, T/C [40]: 1.1%
viability, T/C [41]: 1.22%
viability, T/C [42]: 1%

CNC(C)C(=O)NC1CN(S(=O)(=O)c2cccc(S(=O)(=O)N3CCC4CCC(C(=O)NC(c5ccccc5)c5ccccc5)N4C(=O)C(NC(=O)C(C)NC)C3)c2)CCC2CCC(C(=O)NC(c3ccccc3)c3ccccc3)N2C1=O (configuration not stated)
viability, T/C (compound 0.00316 µM): 109% and 90.1% and 99.2%
viability, T/C (compound 0.01 µM): 102% [middle of 14 runs]
viability, T/C (compound 0.0316 µM): 98.2% [middle of 14 runs]
viability, T/C (compound 0.316 µM): 98.7% [middle of 14 runs]
viability, T/C (compound 1 µM): 96.6% [middle of 14 runs]
IC50 (compound alone, run of 10/24/2022): > 1000 nM
IC50 (compound alone, run of 11/15/2022): > 1000 nM
IC50 (curve of compound): > 1000 nM

C#Cc1c(F)ccc2cc(O)cc(-c3ncc4c(N5CC6CCC(C5)N6)nc(OCC56CCCN5CC(F)C6)nc4c3F)c12 (configuration not stated) + CCN1C(C(=O)NC23CCC(C(=O)O)(CC2)CC3)C(c2cccc(Cl)c2F)C2(C(=O)Nc3cc(Cl)ccc32)C12CCCCC2
IC50 [1]: > 10000 nM
IC50 [2]: > 10000 nM
IC50 [3]: > 10000 nM
IC50 [4]: < 31.6 nM
IC50 [5]: < 31.6 nM
IC50 [6]: < 31.6 nM
viability, T/C [7]: 113%
viability, T/C [8]: 95.3%
viability, T/C [9]: 101%
viability, T/C [10]: 98.1%
viability, T/C [11]: 113%
viability, T/C [12]: 112%
viability, T/C [13]: 99%
viability, T/C [14]: 90.1%
viability, T/C [15]: 97.2%
viability, T/C [16]: 99.3%
viability, T/C [17]: 105%
viability, T/C [18]: 104%
viability, T/C [19]: 84.8%
viability, T/C [20]: 81.2%
viability, T/C [21]: 88.3%
viability, T/C [22]: 85.8%
viability, T/C [23]: 86.8%
viability, T/C [24]: 79.7%
viability, T/C [25]: 26.7%
viability, T/C [26]: 24.9%
viability, T/C [27]: 21.6%
viability, T/C [28]: 20.5%
viability, T/C [29]: 21.6%
viability, T/C [30]: 13.5%
viability, T/C [31]: 2.32%
viability, T/C [32]: 3.19%
viability, T/C [33]: 3.03%
viability, T/C [34]: 3.66%
viability, T/C [35]: 2.43%
viability, T/C [36]: 0.85%
viability, T/C [37]: 1.29%
viability, T/C [38]: 1.17%
viability, T/C [39]: 1.63%
viability, T/C [40]: 1.09%
viability, T/C [41]: 0.91%
viability, T/C [42]: 0.35%

O=C(c1cc(Cc2n[nH]c(=O)c3ccccc23)ccc1F)N1CCN(C(=O)C2CC2)CC1 + CNC(C)C(=O)NC1CN(S(=O)(=O)c2cccc(S(=O)(=O)N3CCC4CCC(C(=O)NC(c5ccccc5)c5ccccc5)N4C(=O)C(NC(=O)C(C)NC)C3)c2)CCC2CCC(C(=O)NC(c3ccccc3)c3ccccc3)N2C1=O
IC50 (curve of first compound, second compound 0.01 µM): 4730 nM
IC50 (curve of first compound, second compound 0.0316 µM): 4470 nM
IC50 (curve of first compound, second compound 0.1 µM): 4370 nM
IC50 (curve of first compound, second compound 0.316 µM): 4260 nM
IC50 (curve of first compound, second compound 1 µM): 3920 nM
viability, T/C (second compound 0.01 µM, first compound 0.0316 µM): 99.8%
viability, T/C (second compound 0.01 µM, first compound 0.1 µM): 95.9%
viability, T/C (second compound 0.01 µM, first compound 0.316 µM): 105%
viability, T/C (second compound 0.01 µM, first compound 1 µM): 94.6%
viability, T/C (second compound 0.01 µM, first compound 3.16 µM): 71.9%
viability, T/C (second compound 0.01 µM, first compound 10 µM): 9.58%
viability, T/C (second compound 0.0316 µM, first compound 0.0316 µM): 104%
viability, T/C (second compound 0.0316 µM, first compound 0.1 µM): 96.8%
viability, T/C (second compound 0.0316 µM, first compound 0.316 µM): 94.2%
viability, T/C (second compound 0.0316 µM, first compound 1 µM): 93.6%
viability, T/C (second compound 0.0316 µM, first compound 3.16 µM): 67.5%
viability, T/C (second compound 0.0316 µM, first compound 10 µM): 8.65%
viability, T/C (second compound 0.1 µM, first compound 0.0316 µM): 105%
viability, T/C (second compound 0.1 µM, first compound 0.1 µM): 95.4%
viability, T/C (second compound 0.1 µM, first compound 0.316 µM): 103%
viability, T/C (second compound 0.1 µM, first compound 1 µM): 93.5%
viability, T/C (second compound 0.1 µM, first compound 3.16 µM): 66.3%
viability, T/C (second compound 0.1 µM, first compound 10 µM): 8.36%
viability, T/C (second compound 0.316 µM, first compound 0.0316 µM): 98.6%
viability, T/C (second compound 0.316 µM, first compound 0.1 µM): 94.7%
viability, T/C (second compound 0.316 µM, first compound 0.316 µM): 99.8%
viability, T/C (second compound 0.316 µM, first compound 1 µM): 96.4%
viability, T/C (second compound 0.316 µM, first compound 3.16 µM): 65.8%
viability, T/C (second compound 0.316 µM, first compound 10 µM): 5.64%
viability, T/C (second compound 1 µM, first compound 0.0316 µM): 97.4%
viability, T/C (second compound 1 µM, first compound 0.1 µM): 102%
viability, T/C (second compound 1 µM, first compound 0.316 µM): 90.3%
viability, T/C (second compound 1 µM, first compound 1 µM): 91.7%
viability, T/C (second compound 1 µM, first compound 3.16 µM): 59.9%
viability, T/C (second compound 1 µM, first compound 10 µM): 5.84%
